Results as given in article PMC9406419, “OATD-02 Validates the Benefits of Pharmacological Inhibition of Arginase 1 and 2 in Cancer” (Cancers, 2022).

Key:
K562 tumours = experiment: K562 xenograft model in T and NK cell-deficient Fox Chase SCID Beige mice; type: in vivo, mouse; details: 50 mg/kg PO BID from day 7, day 19
Method: (§1) CT26 and K562 in vivo experiments were conducted at Molecure SA. All experimental procedures were approved by the 1st Local Ethics Committee in Warsaw (Poland). For the syngeneic CT26 model, 7–8-week old BALB/c females (n = 9–18 per group, BALB/cAnNCrl, Charles River Laboratories) were injected subcutaneously in the right flank with 5 × 10^5 CT26 cells. […] Anti-PD-L1 antibody (InVivoPlus anti-mouse PD-L1, clone 10F.9G2, BioXCell, lot 615416D1) was injected intraperitoneally at 2.5 mg/kg on days: 8, 10, 12, 14 and 16 post tumour cells inoculation. Control groups received vehicle (saline) or isotype antibody (InVivoPlus rat IgG2b, anti-KLH, BioXCell, lot 629816D1). For the xenograft K562 model, 7–8 week-old athymic nude mice (n = 8–11 per group, Crl:NU(NCr)-Foxn1^nu, Charles River Laboratories) or NK cell-deficient Fox Chase SCID Beige mice (n = 10–12 per group, CB17.Cg-Prkdc^scidLyst^bg-J/Crl, Charles River Laboratories) were injected subcutaneously in the right flank with 1 × 10^7 K562 cells. […] Tumour volume measured by a digital calliper (width × length × depth × π/6) was recorded three times per week. Animals were euthanized when tumours were necrotized or volume exceeded 2000 mm^3. Renca in vivo efficacy study was performed at Crown Biosciences Inc. (Taicang, China). […] Tumour volumes (length × width^2 × 0.5) were measured twice per week. […]

CT26 tumours = experiment: Syngeneic CT26 model, combination with epacadostat and anti-PD-L1 antibody; type: in vivo, mouse; details: suboptimal doses: OATD-02 50 mg/kg PO BID; epacadostat 30 mg/kg PO BID; anti-PD-L1 2.5 mg/kg IP days 8, 10, 12, 14, 16
Method: as §1

Renca tumours = experiment: Syngeneic Renca renal adenocarcinoma model with plasma L-arginine and tumour flow cytometry; type: in vivo, mouse
Method: CT26 and K562 in vivo experiments were conducted at Molecure SA. All experimental procedures were approved by the 1st Local Ethics Committee in Warsaw (Poland). For the syngeneic CT26 model, 7–8-week old BALB/c females (n = 9–18 per group, BALB/cAnNCrl, Charles River Laboratories) were injected subcutaneously in the right flank with 5 × 10^5 CT26 cells. […] Anti-PD-L1 antibody (InVivoPlus anti-mouse PD-L1, clone 10F.9G2, BioXCell, lot 615416D1) was injected intraperitoneally at 2.5 mg/kg on days: 8, 10, 12, 14 and 16 post tumour cells inoculation. Control groups received vehicle (saline) or isotype antibody (InVivoPlus rat IgG2b, anti-KLH, BioXCell, lot 629816D1). For the xenograft K562 model, 7–8 week-old athymic nude mice (n = 8–11 per group, Crl:NU(NCr)-Foxn1^nu, Charles River Laboratories) or NK cell-deficient Fox Chase SCID Beige mice (n = 10–12 per group, CB17.Cg-Prkdc^scidLyst^bg-J/Crl, Charles River Laboratories) were injected subcutaneously in the right flank with 1 × 10^7 K562 cells. […] Tumour volume measured by a digital calliper (width × length × depth × π/6) was recorded three times per week. Animals were euthanized when tumours were necrotized or volume exceeded 2000 mm^3. Renca in vivo efficacy study was performed at Crown Biosciences Inc. (Taicang, China). All experimental procedures on animals were approved by the Institutional Animal Care and Use Committee (IACUC) and conducted in accordance with the regulations of the Association for Assessment and Accreditation of Laboratory Animal Care (AAALAC). For the syngeneic Renca model, 6–7 week-old BALB/c females (n = 12 per group, Shanghai Lingchang Biotechnology, Shanghai, China) were injected subcutaneously in the right flank with 1 × 10^6 Renca cells. Tumour volumes (length × width^2 × 0.5) were measured twice per week. OATD-02 was dosed twice per day at 75 mg/kg by oral gavage. A dosing holiday was given to individuals with bodyweight loss exceeding 15% of the initial body weight and the treatment was resumed when the bodyweight loss recovered to less than 10%. Due to the cachexic nature of the Renca model, all animals were supplemented with DietGel to help maintain their body weight.
Dissected tumours were dissociated to obtain single-cell suspensions for antibody staining and immune cell assessment. Prior to the antibody staining, dead cells were labelled with the Fixable Viability Due eFluor™ 780 (eBiosciences, San Diego, CA, USA). The following anti-mouse antibodies were used for flow cytometry: anti-CD45-FITC (clone 30-F11, Biolegend, San Diego, CA, USA), anti-CD3-BUV395 (clone 145-2C11, BD), anti-CD4-BV421 (clone GK1.5, Biolegend), anti-CD8-PE-eFluor610 (clone 53-6.7, eBiosciences), anti-Foxp3-PE (clone FJK-16S, eBiosciences), anti-CD11b-PE-Cy7 (clone M1/70, Biolegend), anti-F4/80-BV510 (clone BM8, Biolegend), and anti-Gr1-APC (clone RB6-8C5, Biolegend).
The concentrations of OATD-02, the reference ARGi or L-arginine were determined in plasma samples or tumour homogenates using liquid chromatography coupled with tandem mass spectrometry (LC-MS/MS). Sample preparation was based on protein precipitation using acetonitrile. The resulting supernatants were analysed using hydrophilic interaction liquid chromatography (HILIC) with subsequent MS detection based on optimised MRM transitions. Matrix-matched calibration and quality control samples were prepared for quantification of OATD-02 and the reference ARGi. Due to the endogenous character of L-arginine, a surrogate matrix was used for its detection.
All statistical analyses were performed using GraphPad Prism (ver. 9, GraphPad Software, Inc., San Diego, CA, USA). Data sets with normal distribution were described as means with SEM (standard error of the mean). Otherwise, the median value was shown and the U Mann–Whitney or the Kruskal–Wallis tests were applied for intergroup comparisons. Differences at p-value less than 0.05 were considered statistically significant. […]

[1] = Tolerability in animal models; type: in vivo

## CN(C)C[C@@H]1CC[C@@H](CCB(O)O)C[C@]1(N)C(=O)O [OATD-02]
K562 tumours
  final TGI, K562 tumor volumes, Fox Chase SCID Beige mice: 47%
CT26 tumours
  TGI, CT26 tumor growth inhibition - day 24: 33%
Renca tumours; 75 mg/kg PO BID from day 1, day 22 post-inoculation, not statistically significant
  TGI, syngeneic Renca model: 31%
Renca tumours; Renca tumours, flow cytometry, Foxp3+ within CD4+ T cells, p = 0.0196
  levels of Tregs in the tumour microenvironment: decreased levels
Renca tumours; Renca tumours, flow cytometry, p = 0.0173
  levels of MDSCs in the tumour microenvironment: decreased levels
Renca tumours; Renca tumours, flow cytometry, p = 0.0281
  CD8+/Treg cell ratio: beneficial increase
Renca tumours; Renca tumours, flow cytometry, p = 0.0284
  levels of neutrophils in the tumour microenvironment: decreased levels
Renca tumours; Renca-bearing mice, 75 mg/kg PO BID, 16 h upon last dose
  fold increase in plasma L-arginine: 6.6 fold
[1]
  safety and tolerability: safe and well tolerated
